# Literature values as cited in EP0200541B1, “Immunochemical method and analytical composition and element for determination of creatine kinase-MB” (EASTMAN KODAK COMPANY (a New Jersey corporation), priority 1985, dated 1986).
# Experiments:
# total AK = conditions: AMP:ADP molar ratio of 10:1
# CK-MB = CK-MB (Homo sapiens, UniProt P06732+P12277); conditions: 0.5-1 millimolar DAPP
# erythrocyte AK = target: T1, erythrocyte AK (Homo sapiens, UniProt P00568); conditions: 0.01 millimolar DAPP
# T1 sequence (P00568 1-194): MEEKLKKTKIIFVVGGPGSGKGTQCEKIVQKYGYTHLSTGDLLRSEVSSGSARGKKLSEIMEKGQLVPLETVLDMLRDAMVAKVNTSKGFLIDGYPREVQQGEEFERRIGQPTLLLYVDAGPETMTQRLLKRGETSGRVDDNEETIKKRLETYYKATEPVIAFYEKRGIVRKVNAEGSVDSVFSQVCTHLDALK
# muscle AK = target: T2, muscle AK (Homo sapiens, UniProt P00568); conditions: 0.01 millimolar DAPP
# T2 sequence (P00568 1-194): T1 sequence (P00568 1-194)
# liver AK = liver AK (Homo sapiens, UniProt P54819)
# Sequence of CK-MB (P06732 whole entry): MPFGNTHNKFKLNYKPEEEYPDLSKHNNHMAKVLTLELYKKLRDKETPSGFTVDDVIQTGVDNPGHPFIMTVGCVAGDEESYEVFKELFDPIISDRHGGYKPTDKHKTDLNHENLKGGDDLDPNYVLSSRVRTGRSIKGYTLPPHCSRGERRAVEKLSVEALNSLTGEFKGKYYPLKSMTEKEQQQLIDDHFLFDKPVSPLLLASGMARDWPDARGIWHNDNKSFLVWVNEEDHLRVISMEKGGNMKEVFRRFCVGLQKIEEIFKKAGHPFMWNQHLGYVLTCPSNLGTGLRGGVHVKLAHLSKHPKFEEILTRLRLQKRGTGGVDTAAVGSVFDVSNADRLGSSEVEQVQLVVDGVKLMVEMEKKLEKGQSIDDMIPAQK
# Sequence of CK-MB (P12277 whole entry): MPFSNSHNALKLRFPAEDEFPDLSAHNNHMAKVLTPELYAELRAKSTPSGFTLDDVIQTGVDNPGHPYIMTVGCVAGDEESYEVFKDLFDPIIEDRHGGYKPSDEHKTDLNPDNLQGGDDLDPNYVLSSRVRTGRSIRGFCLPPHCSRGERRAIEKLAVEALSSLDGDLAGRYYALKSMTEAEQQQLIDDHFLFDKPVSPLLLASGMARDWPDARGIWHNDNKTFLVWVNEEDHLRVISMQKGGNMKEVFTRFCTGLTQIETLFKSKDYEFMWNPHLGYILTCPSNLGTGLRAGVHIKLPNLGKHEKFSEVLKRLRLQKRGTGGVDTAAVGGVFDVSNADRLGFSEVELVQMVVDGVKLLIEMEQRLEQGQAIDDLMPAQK
Structure (SMILES),reduction of the activity of total CK (total CK; AMP:ADP molar ratio of 10:1),total AK inhibited (total AK) [%],reduction in CK activity (total CK; 0.5-1 millimolar DAPP alone) [%],reduction of the activity of CK-MB (CK-MB),erythrocyte AK inhibited (erythrocyte AK) [%],muscle AK inhibited (muscle AK) [%],liver isoenzyme inhibited (liver AK; 0.01 millimolar DAPP) [%],activity of liver AK inhibited (liver AK; 0.5-1 millimolar DAPP alone)
"Nc1ncnc2c1ncn2[C@@H]1O[C@H](COP(=O)(O)O)[C@@H](O)[C@H]1O [AMP, adenosine-5'-monophosphate]",15-20%,95,–,–,–,–,–,–
"Nc1ncnc2c1ncn2[C@@H]1O[C@H](COP(=O)(O)OP(=O)(O)OP(=O)(O)OP(=O)(O)OP(=O)(O)OC[C@H]2O[C@@H](n3cnc4c(N)ncnc43)[C@H](O)[C@@H]2O)[C@@H](O)[C@H]1O [DAPP, P^1,P^5-di(adenosine-5')pentaphosphate]",–,–,5,at least 5%,97,97,80,up to 97%
